This is an account of results in ChEMBL document CHEMBL1149371, “A strategy for the design of selective RNA binding agents. Preparation and RRE RNA binding affinities of a neomycin-peptide nucleic acid heteroconjugate library” (Bioorg Med Chem Lett, 2006).

Test [1] addresses Rev responsive element (RRE) RNA. Nature of the test: Binding affinity to Rev response element RNA. In kind it is nucleic-acid assay.
Test [2] deals with tRNA. Put plainly: Binding affinity to tRNA.
Test [3] has as its system Rev responsive element (RRE) RNA. Put plainly: Discrimination factor, Kd for tRNA/Kd for Rev response element RNA. In kind it is nucleic-acid assay.
For test [4] the test system is unchanged. Put plainly: Ratio of inhibition of Rev binding to Rev response element RNA in presence to absence of competitor RNA. It counts as nucleic-acid assay.
In test [5] the target is Rev responsive element (RRE) RNA. Put plainly: Inhibition of Rev binding to Rev response element RNA in presence of competitor RNA. It counts as nucleic-acid assay.
Test [6] has the same target. Nature of the test: Inhibition of Rev binding to Rev response element RNA in absence of competitor RNA. It counts as nucleic-acid assay.

Consider `NC[C@@H]1O[C@H](O[C@H]2[C@@H](O)[C@H](O[C@@H]3[C@@H](O)[C@H](N)C[C@H](N)[C@H]3O[C@H]3O[C@H](CN)[C@@H](O)[C@H](O)[C@H]3N)O[C@@H]2CSCCCCCCSCC(=O)NCCN(CC(=O)NCCN(CC(N)=O)C(=O)Cn2ccc(N)nc2=O)C(=O)Cn2cnc3c(O)nc(N)nc32)[C@H](N)[C@@H](O)[C@@H]1O`, for which binding in test [1] was put at a Kd of 240 nM.

In test [1], `Cc1cn(CC(=O)N(CCNC(=O)CN(CCNC(=O)CSCCCCCCSC[C@H]2O[C@@H](O[C@@H]3[C@@H](O)[C@H](N)C[C@H](N)[C@H]3O[C@H]3O[C@H](CN)[C@@H](O)[C@H](O)[C@H]3N)[C@H](O)[C@@H]2O[C@H]2O[C@@H](CN)[C@@H](O)[C@H](O)[C@H]2N)C(=O)Cn2cnc3c(N)ncnc32)CC(N)=O)c(=O)[nH]c1=O` showed a Kd of 250 nM. Turning to `NC[C@@H]1O[C@H](O[C@H]2[C@@H](O)[C@H](O[C@@H]3[C@@H](O)[C@H](N)C[C@H](N)[C@H]3O[C@H]3O[C@H](CN)[C@@H](O)[C@H](O)[C@H]3N)O[C@@H]2CSCCCCCCSCC(=O)NCCN(CC(=O)NCCN(CC(N)=O)C(=O)Cn2ccc(N)nc2=O)C(=O)Cn2cnc3c(N)ncnc32)[C@H](N)[C@@H](O)[C@@H]1O`, the Kd in test [2] stood at 76 nM; in test [1], 51 nM. Further, the Ratio in test [3] stood at 1.5. For `NC[C@@H]1O[C@H](O[C@H]2[C@@H](O)[C@H](O[C@@H]3[C@@H](O)[C@H](N)C[C@H](N)[C@H]3O[C@H]3O[C@H](CN)[C@@H](O)[C@H](O)[C@H]3N)O[C@@H]2CSCCCCCCSCC(=O)NCCN(CC(=O)NCCN(CC(N)=O)C(=O)Cn2cnc3c(O)nc(N)nc32)C(=O)Cn2cnc3c(N)ncnc32)[C@H](N)[C@@H](O)[C@@H]1O`, in that order: 170 nM, 38 nM and 4.5. Turning to `Cc1cn(CC(=O)N(CCNC(=O)CN(CCNC(=O)CSCCCCCCSC[C@H]2O[C@@H](O[C@@H]3[C@@H](O)[C@H](N)C[C@H](N)[C@H]3O[C@H]3O[C@H](CN)[C@@H](O)[C@H](O)[C@H]3N)[C@H](O)[C@@H]2O[C@H]2O[C@@H](CN)[C@@H](O)[C@H](O)[C@H]2N)C(=O)Cn2cc(C)c(=O)[nH]c2=O)CC(N)=O)c(=O)[nH]c1=O`, binding in test [1] was characterised by a dissociation constant (Kd) of 130 nM.

As to `CC(=O)N(CCNC(=O)CSCCCCCCSC[C@H]1O[C@@H](O[C@@H]2[C@@H](O)[C@H](N)C[C@H](N)[C@H]2O[C@H]2O[C@H](CN)[C@@H](O)[C@H](O)[C@H]2N)[C@H](O)[C@@H]1O[C@H]1O[C@@H](CN)[C@@H](O)[C@H](O)[C@H]1N)CC(=O)NCCN(CC(N)=O)C(=O)Cn1cnc2c(O)nc(N)nc21`, the Kd in test [1] worked out at 130 nM. This counts as sub-micromolar. `NC[C@@H]1O[C@H](O[C@H]2[C@@H](O)[C@H](O[C@@H]3[C@@H](O)[C@H](N)C[C@H](N)[C@H]3O[C@H]3O[C@H](CN)[C@@H](O)[C@H](O)[C@H]3N)O[C@@H]2CSCCCCCCSCC(=O)NCCN(CC(=O)NCCN(CC(N)=O)C(=O)Cn2cnc3c(O)nc(N)nc32)C(=O)Cn2cnc3c(O)nc(N)nc32)[C@H](N)[C@@H](O)[C@@H]1O`: the dissociation constant (Kd) in test [2] is 210 nM; in test [1] it was 30 nM. For the same compound, the values for the Ratio in test [4] and in test [3] were 1.4 and 7, respectively. Moreover, the figures for the IC50 in test [5] and in test [6] were 45000 nM and 32000 nM, respectively.

For the compound `CC(=O)N(CCNC(=O)CSCCCCCCSC[C@H]1O[C@@H](O[C@@H]2[C@@H](O)[C@H](N)C[C@H](N)[C@H]2O[C@H]2O[C@H](CN)[C@@H](O)[C@H](O)[C@H]2N)[C@H](O)[C@@H]1O[C@H]1O[C@@H](CN)[C@@H](O)[C@H](O)[C@H]1N)CC(=O)NCCN(CC(N)=O)C(=O)Cn1cc(C)c(=O)[nH]c1=O`, the Kd in test [1] amounted to 270 nM. This counts as sub-micromolar.

`Cc1cn(CC(=O)N(CCNC(=O)CN(CCNC(=O)CSCCCCCCSC[C@H]2O[C@@H](O[C@@H]3[C@@H](O)[C@H](N)C[C@H](N)[C@H]3O[C@H]3O[C@H](CN)[C@@H](O)[C@H](O)[C@H]3N)[C@H](O)[C@@H]2O[C@H]2O[C@@H](CN)[C@@H](O)[C@H](O)[C@H]2N)C(=O)Cn2cnc3c(O)nc(N)nc32)CC(N)=O)c(=O)[nH]c1=O`: the Kd in test [2] came to 220 nM; in test [1], 93 nM. Besides, the Ratio in test [3] worked out at 2.4. `Cc1cn(CC(=O)N(CCNC(=O)CSCCCCCCSC[C@H]2O[C@@H](O[C@@H]3[C@@H](O)[C@H](N)C[C@H](N)[C@H]3O[C@H]3O[C@H](CN)[C@@H](O)[C@H](O)[C@H]3N)[C@H](O)[C@@H]2O[C@H]2O[C@@H](CN)[C@@H](O)[C@H](O)[C@H]2N)CC(=O)NCCN(CC(N)=O)C(=O)Cn2cnc3c(N)ncnc32)c(=O)[nH]c1=O`: the values for the Kd in test [2] and in test [1] were 230 nM and 71 nM, respectively. The Ratio in test [3] is 3.2. With `NC[C@@H]1O[C@H](O[C@H]2[C@@H](O)[C@H](O[C@@H]3[C@@H](O)[C@H](N)C[C@H](N)[C@H]3O[C@H]3O[C@H](CN)[C@@H](O)[C@H](O)[C@H]3N)O[C@@H]2CO)[C@H](N)[C@@H](O)[C@@H]1O` [FRAMYCETIN], in test [1], the dissociation constant Kd worked out at 180 nM.

`NC[C@@H]1O[C@H](O[C@H]2[C@@H](O)[C@H](O[C@@H]3[C@@H](O)[C@H](N)C[C@H](N)[C@H]3O[C@H]3O[C@H](CN)[C@@H](O)[C@H](O)[C@H]3N)O[C@@H]2CSCCCCCCSCC(=O)NCCN(CC(=O)NCCN(CC(N)=O)C(=O)Cn2cnc3c(O)nc(N)nc32)C(=O)Cn2ccc(N)nc2=O)[C@H](N)[C@@H](O)[C@@H]1O` showed a dissociation constant (Kd) in test [1] of 170 nM. On the same count and under the same terms, to `Cc1cn(CC(=O)N(CCNC(=O)CSCCCCCCSC[C@H]2O[C@@H](O[C@@H]3[C@@H](O)[C@H](N)C[C@H](N)[C@H]3O[C@H]3O[C@H](CN)[C@@H](O)[C@H](O)[C@H]3N)[C@H](O)[C@@H]2O[C@H]2O[C@@H](CN)[C@@H](O)[C@H](O)[C@H]2N)CC(=O)NCCN(CC(N)=O)C(=O)Cn2ccc(N)nc2=O)c(=O)[nH]c1=O` belongs 360 nM.

`NC[C@@H]1O[C@H](O[C@H]2[C@@H](O)[C@H](O[C@@H]3[C@@H](O)[C@H](N)C[C@H](N)[C@H]3O[C@H]3O[C@H](CN)[C@@H](O)[C@H](O)[C@H]3N)O[C@@H]2CSCCCCCCSCC(=O)NCCN(CC(=O)NCCN(CC(N)=O)C(=O)Cn2cnc3c(N)ncnc32)C(=O)Cn2cnc3c(O)nc(N)nc32)[C@H](N)[C@@H](O)[C@@H]1O` had a Kd in test [1] of 200 nM.

As to `NC[C@@H]1O[C@H](O[C@H]2[C@@H](O)[C@H](O[C@@H]3[C@@H](O)[C@H](N)C[C@H](N)[C@H]3O[C@H]3O[C@H](CN)[C@@H](O)[C@H](O)[C@H]3N)O[C@@H]2CSCCCCCCSCC(=O)NCCN(CC(=O)NCCN(CC(N)=O)C(=O)Cn2cnc3c(N)ncnc32)C(=O)Cn2cnc3c(N)ncnc32)[C@H](N)[C@@H](O)[C@@H]1O`, the dissociation constant Kd in test [2] turned out to be 410 nM; in test [1], 58 nM. Further, the results for the Ratio in test [4] and in test [3] were 1.2 and 7.1, respectively. Also, the concentration for half-maximal inhibition (IC50) came out at 68000 nM in test [5] and 55000 nM in test [6].

In turn, `NC[C@@H]1O[C@H](O[C@H]2[C@@H](O)[C@H](O[C@@H]3[C@@H](O)[C@H](N)C[C@H](N)[C@H]3O[C@H]3O[C@H](CN)[C@@H](O)[C@H](O)[C@H]3N)O[C@@H]2CSCCCCCCSCC(=O)NCCN(CC(=O)NCCN(CC(N)=O)C(=O)Cn2ccc(N)nc2=O)C(=O)Cn2ccc(N)nc2=O)[C@H](N)[C@@H](O)[C@@H]1O` had a Kd in test [1] of 430 nM. As for `NC[C@@H]1O[C@H](O[C@H]2[C@@H](O)[C@H](O[C@@H]3[C@@H](O)[C@H](N)C[C@H](N)[C@H]3O[C@H]3O[C@H](CN)[C@@H](O)[C@H](O)[C@H]3N)O[C@@H]2CSCCNc2c3ccccc3nc3ccccc23)[C@H](N)[C@@H](O)[C@@H]1O`, the 50% inhibitory concentration (IC50) in test [5] was 9800 nM; in test [6], 500 nM. Compound `NC[C@@H]1O[C@H](O[C@H]2[C@@H](O)[C@H](O[C@@H]3[C@@H](O)[C@H](N)C[C@H](N)[C@H]3O[C@H]3O[C@H](CN)[C@@H](O)[C@H](O)[C@H]3N)O[C@@H]2CSCCCCCCSCC(=O)NCCN(CC(=O)NCCN(CC(N)=O)C(=O)Cn2cnc3c(N)ncnc32)C(=O)Cn2ccc(N)nc2=O)[C@H](N)[C@@H](O)[C@@H]1O` registered a Kd in test [1] of 130 nM.

The compound `Cc1cn(CC(=O)N(CCNC(=O)CN(CCNC(=O)CSCCCCCCSC[C@H]2O[C@@H](O[C@@H]3[C@@H](O)[C@H](N)C[C@H](N)[C@H]3O[C@H]3O[C@H](CN)[C@@H](O)[C@H](O)[C@H]3N)[C@H](O)[C@@H]2O[C@H]2O[C@@H](CN)[C@@H](O)[C@H](O)[C@H]2N)C(=O)Cn2ccc(N)nc2=O)CC(N)=O)c(=O)[nH]c1=O` displayed a Kd in test [1] of 110 nM. For the compound `CC(=O)N(CCNC(=O)CSCCCCCCSC[C@H]1O[C@@H](O[C@@H]2[C@@H](O)[C@H](N)C[C@H](N)[C@H]2O[C@H]2O[C@H](CN)[C@@H](O)[C@H](O)[C@H]2N)[C@H](O)[C@@H]1O[C@H]1O[C@@H](CN)[C@@H](O)[C@H](O)[C@H]1N)CC(=O)NCCN(CC(N)=O)C(=O)Cn1ccc(N)nc1=O`, binding in test [1] was put at a Kd of 320 nM.
